Laboratory results as given in US8889699B2, “5-fluorouracil derivative” (Delta-Fly Pharma, Inc., priority 2009, dated 2014).

Legend:
[1] = test system: Human colon cancer strain (KM12C)
Procedure: (§1) The resulting product was stirred with a stirrer at room temperature for about 10 minutes. […] The proliferated strain was extracted, cut into about 2 to 3 mm square pieces with scissors in physiological saline, and subcutaneously inoculated to the right axillary region of rats of the same strain, 5 to 6 weeks of age, using a transplantation needle. […] Then, drug administration was initiated from the next day. Each of the test liquids shown in (a) to (b) above was administered orally to the rats in each of the test drug groups using a sonde for oral administration at a dose of 0.1 ml per 10 g body weight once a day for 14 continuous days. In the same manner as the above, the cancer-bearing rats in the control group were subjected to oral administration of only 0.5% HPMC liquid for 14 continuous days.
(§2) The tumor volume of each rat in each group before the initiation of the treatment, on day 3, day 5, day 8 (1 week after), day 11, and day 15 (2 weeks after), i.e., after termination of the administration, was calculated using Equation 1 below, and respective relative tumor volume (RTV) relative to the tumor volume at the time of initiation of the treatment was calculated. In relation to the antitumor effect, the average value of the tumor proliferation inhibition ratio (IR; %) was calculated from the average tumor volume of each treatment group on day 15 (after termination of the treatment) relative to that of the control group on day 15, using Equation 2. […] Along therewith, a weight change ratio was calculated from the body weight of the rats at the time of the termination of the drug administration relative to the body weight of the rats at the time of the initiation of the administration, using Equation 3. […] A coagulation inhibitor was added to each of the collected blood samples, and the white blood cell count, red blood cell count, and platelet count were measured using a hemocytometer.

DPD = molecular target: T1, DPD (Rattus norvegicus, UniProt O89000); assay: DPD inhibitory action in vitro (enzyme reaction, tritium-labeled 5-FU as substrate); type: biochemical; settings: Conc. 0.02 μM; Table 5
T1 construct: the obtained supernatant was used as a DPD enzyme solution or an OPRT enzyme solution; from tissue; host or cells: liver of 8-week old SD rat; 105,000 g supernatant of homogenate
T1 sequence (O89000 1-1025): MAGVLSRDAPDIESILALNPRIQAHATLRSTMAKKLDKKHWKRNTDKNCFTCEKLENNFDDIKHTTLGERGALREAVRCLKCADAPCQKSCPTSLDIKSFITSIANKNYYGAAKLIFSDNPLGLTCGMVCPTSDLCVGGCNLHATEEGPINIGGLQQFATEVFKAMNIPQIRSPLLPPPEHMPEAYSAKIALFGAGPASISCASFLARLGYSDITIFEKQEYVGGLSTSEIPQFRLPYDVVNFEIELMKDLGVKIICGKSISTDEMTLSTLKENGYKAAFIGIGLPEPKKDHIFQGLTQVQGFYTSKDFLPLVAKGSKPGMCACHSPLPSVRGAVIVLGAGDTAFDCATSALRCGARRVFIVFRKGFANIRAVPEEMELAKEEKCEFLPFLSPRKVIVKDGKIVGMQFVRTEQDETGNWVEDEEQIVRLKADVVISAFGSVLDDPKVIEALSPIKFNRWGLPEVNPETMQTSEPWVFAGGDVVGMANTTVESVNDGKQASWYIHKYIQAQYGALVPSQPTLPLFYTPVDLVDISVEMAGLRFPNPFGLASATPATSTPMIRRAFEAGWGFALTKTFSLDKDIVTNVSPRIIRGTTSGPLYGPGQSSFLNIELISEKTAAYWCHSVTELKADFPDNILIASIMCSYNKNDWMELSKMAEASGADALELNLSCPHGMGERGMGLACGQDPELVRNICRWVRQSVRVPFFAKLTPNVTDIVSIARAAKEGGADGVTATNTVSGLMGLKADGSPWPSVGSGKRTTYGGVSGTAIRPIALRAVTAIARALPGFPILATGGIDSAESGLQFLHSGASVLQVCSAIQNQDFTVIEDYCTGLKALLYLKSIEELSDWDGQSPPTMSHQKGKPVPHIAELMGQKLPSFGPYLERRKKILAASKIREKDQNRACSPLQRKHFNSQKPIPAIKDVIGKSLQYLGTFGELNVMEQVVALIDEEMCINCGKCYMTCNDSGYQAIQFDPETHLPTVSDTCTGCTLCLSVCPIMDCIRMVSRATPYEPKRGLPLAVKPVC

[2] = test system: human gastric cancer strain (SC-2)
Procedure: as §1, §2

[3] = oral, 14 days, Compound I-11 71 to 88 mg/kg/day, S-1 20 to 22.5 mg/kg/day

Row | SMILES | antitumor effect ([1]; oral, 14 days, Compound I-10 51 to 77 mg/kg/day, S-1 15 to 22.5 mg/kg/day, FIG. 2-1) | diarrhea ([1]; rat, in vivo) | platelet count relative to that of the control group ([1]; rat, in vivo) | weight loss ([1]; rat, in vivo) | DPD Inhibitory Activity: Activity (DPD) | inhibition at 0.02 µM (DPD) | white blood cell count, reduced to % of that of the control group ([2]; 71 to 88 mg/kg/day orally for 2 weeks, FIG. 1-2) | platelet count relative to that of the control group ([2]; oral, 2 weeks, Compound I-11 71 to 88 mg/kg/day, S-1 20 to 22.5 mg/kg/day, FIG. 1-2) | toxic death ([2]; oral, 14 days, Compound I-11 71 to 88 mg/kg/day) | diarrhea [2, 3] | weight loss [2, 3] | antitumor effect ([2]; oral, 14 days, Compound I-11 71 to 88 mg/kg/day, S-1 20 to 22.5 mg/kg/day, FIG. 1-1)
1 | CCOCn1cc(F)c(=O)n(C(=O)c2cccc(C(=O)Oc3cc(OC(=O)c4cc(OC(C)=O)nc(OC(C)=O)c4)c(Cl)cn3)c2)c1=O [Compound I-10, 3-{3-[4-(2,6-diacetyloxyisonicotinoyloxy)-5-chloro-2-pyridyloxycarbonyl]benzoyl}-1-ethoxymethyl-5-fluorouracil] | high antitumor effects in a dose-dependent manner | not observed | the same as that of the control group | not observed |  |  |  |  |  |  |  | 
2 | CCOCn1cc(F)c(=O)n(C(=O)c2cccc(C(=O)Oc3cc(OC(=O)c4cc(OC(=O)CC)nc(OC(=O)CC)c4)c(Cl)cn3)c2)c1=O [Compound I-11, 3-{3-[4-(2,6-dipropionyloxyisonicotinoyloxy)-5-chloro-2-pyridyloxycarbonyl]benzoyl}-1-ethoxymethyl-5-fluorouracil] |  |  |  |  | 0.705 nmol/mL/min | 0% | about 50% | almost the same as that of the control group | not observed | not observed | not observed | high antitumor effects in a dose-dependent manner
